Molecular target: T1, CYP1A2r (Rattus norvegicus, UniProt P04799)
T1 sequence (P04799 1-513): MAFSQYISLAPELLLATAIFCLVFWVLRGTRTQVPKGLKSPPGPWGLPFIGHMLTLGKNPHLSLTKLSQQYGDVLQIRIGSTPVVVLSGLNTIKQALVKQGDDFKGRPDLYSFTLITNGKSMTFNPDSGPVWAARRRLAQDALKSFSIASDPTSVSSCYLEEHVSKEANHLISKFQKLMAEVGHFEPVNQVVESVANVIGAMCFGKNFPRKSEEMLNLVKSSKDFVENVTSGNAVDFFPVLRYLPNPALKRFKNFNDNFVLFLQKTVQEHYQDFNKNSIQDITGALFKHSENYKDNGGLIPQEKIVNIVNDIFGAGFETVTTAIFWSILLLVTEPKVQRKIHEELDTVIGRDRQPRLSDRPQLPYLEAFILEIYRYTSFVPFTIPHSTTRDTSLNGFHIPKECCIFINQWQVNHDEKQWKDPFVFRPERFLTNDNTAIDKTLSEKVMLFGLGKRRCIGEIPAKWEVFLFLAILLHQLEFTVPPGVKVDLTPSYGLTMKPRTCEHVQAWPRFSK
Assay: Fluorescence-based CYP assay, recombinant CYP1A2r, substrate EFC
Format: in vitro ADME
Details: concentrations up to 80 µM
Procedure: These assays were performed by methods similar to those described by VanAlstine and Hough, Stresser et al., Wulff et al., Henderson et al., and Crespi et al., with minor modifications. All incubations were performed in a final volume of 200 µL of 50 mM potassium phosphate buffer at pH 7.4 containing 1% acetonitrile. CYP inhibitor studies were performed according to the parameters of Table 1. Substrate concentrations were chosen to be near known Km values. As described in the references cited, two different NADPH regenerating systems were used depending on the substrates used (Table 1). […] Samples were pre-incubated at 37°C for the designated times, and the reactions were initiated with the addition of a substrate and enzyme mixtures (Table 1). […] For the assays utilizing the “high” regenerating system, enzyme reactions were terminated at the designated time by the addition of 75 µL of 2N NaOH, followed by a 2 h post-incubation at 37°C. Product formation was then measured at the designated wavelengths (Table 1). For the “low” regenerating system assays, blanks and standards were prepared in 0.1 mL buffer without the regenerating system. For the “high” regenerating system assays, blanks and standards containing 0.1 mL of buffer received 75 µL of 2N NaOH following pre-incubation.

## Clc1ccc(COC(Cn2ccnc2)c2ccc(Cl)cc2Cl)c(Cl)c1 (stereo not shown) [miconazole]
  Inhibition of CYP1A2r (in words): did not inhibit

From PMC3646888 (PLoS ONE, 2013)
